In US20060034781A1, “PERORAL PREPARATION FOR PREVENTION OR TREATMENT OF ATOPIC DERMATATIS” (Kyowa Hakko Kogyo Co., Ltd., priority 2002, published 2006):

How the values were obtained:
Assay type in all cases: in vivo
Conditions in all cases: oral, in feed (0.25% N-acetyl-trans-4-hydroxy-L-proline or 0.5% trans-4-hydroxy-L-proline) versus control feed
mast cells = assay: Mast cell density at auricle of atopic dermatitis model mice (Toluidine Blue staining)
Description: (§1) For the test, NC/Nga mice (five weeks age; purchased from Charles River) were used. The breeding conditions were that the mice were bred under room temperature of 22±2° C. and humidity of 35±15% and that feed and water were freely taken by them.
(§2) The test feed was prepared by well mixing of powdery feed CE-2 (manufactured by Nippon Claire) with 0.25% by weight of N-acetyl-trans-4-hydroxy-L-proline or 0.50% by weight of trans-4-hydroxy-L-proline. The feed containing N-acetyl-trans-4-hydroxy-L-proline was named a feed 1 while the feed containing trans-4-hydroxy-L-proline was named a feed 2 and, as a control feed, a powdery feed CE-2 was used.
(§3) With regard to the hapten, a product prepared by dissolving 1.5% by weight of dinitrochlorobenzene (DNCB) in a solution comprising 20% by volume of olive oil and 80% by volume of acetone was used.
(§4) Three mice were used for each of the test groups, and 20 μl of 1.5% DNCB was respectively applied onto both side of the right auricle of each of the mice after nine days, ten days, thirteen days and fourteen days from initiation of administration of the test feed.
With regard to the model mice where atopic dermatitis appeared used in Test Example 1, tissues at auricle were frozen and embedded in Tissue-Tek O. C. T. Compound (manufactured by Sakura Seiki K. K.) on the 27th day from initiation of administration of the test feed. […]

IgE = IgE concentration in serum of atopic dermatitis model mice (ELISA)
Description: as §1, §2, §3, §4
With regard to the model mice where atopic dermatitis appeared used in Test Example 1, blood was collected from right thigh on the 27th day from initiation of administration of the test feed. […]

NC/Nga mice = assay: Suppression of auricular edema in DNCB-treated atopic dermatitis model mice
Description: as §1, §2
With regard to the hapten, a product prepared by dissolving 1.5% by weight of dinitrochlorobenzene (DNCB) in a solution comprising 20% by volume of olive oil and 80% by volume of acetone was used. […]
Starting from the day when application of the hapten started, thickness of the right auricle was measured using Pescock Dial Thickness Gauge (manufactured by Ozaki Seisakusho) one daily.
An increasing amount of auricular edema was calculated according to the following formula 1 as a relative value to an increasing amount of auricular edema of a mouse which was not treated with DNCB and the result is shown in Table 2. […]

| Compound | increase in mast cell density by application of DNCB (result in words) (mast cells) | increase in IgE concentration in serum by application of DNCB (result in words) (IgE) | auricular edema induced by DNCB (result in words) (NC/Nga mice) |
| --- | --- | --- | --- |
| O=C(O)[C@@H]1C[C@@H](O)CN1 [trans-4-hydroxy-L-proline] | apparently suppressed | significantly suppressed | apparently suppressed |
| CC(=O)N1C[C@H](O)C[C@H]1C(=O)O [N-acetyl-trans-4-hydroxy-L-proline] | apparently suppressed | significantly suppressed | apparently suppressed |
